pKi: −log10 of the molar value.
Legend:
guinea pig ileum = guinea pig ileum test (in vitro); settings: relative to PGF2α (conventional value 1), limits in brackets
Experimental: (§1) In the Table the conventional value of 1 was given to the activity of PGF2α in both tests.
*In a 10 ml thermostatic bath held at 35° C., ilea of male guinea
pigs, under 0.5 g traction, were subjected to carbondioxide in a Tyrode
solution; the preparation was left for 30 minutes to stabilize before the
compounds were tested. The response was recorded using a isotonic frontal
lever, long enough to amplify the response 4.5 times.

oestrogenized rat uteri = assay: rat uterus test (in vitro); settings: relative to PGF2α (conventional value 1), limits in brackets
Experimental: as §1
**In a 10 ml thermostatic bath held at 29° C., oestrogenized rat
uteri under 0.5 g traction were subjected to carbondioxide in a Dejalon
saline solution. The prepration was left to stabilize for 30 minutes
before the compounds were tested. Response was measured using a isotonic
frontal lever, long enough to amplify the response 4.5 times.

pregnant rat = assay: luteolytic activity in the pregnant rat; type: in vivo; settings: pregnant rat at the 9th-10th day of pregnancy; relative to PGF2α (conventional value 1)
Excerpt: The action selectivity of the compounds of the invention on the miometrium and on the reproductive apparatus is also proven by the remarkable increase of the luteolytic activity in the pregnant rat at the 9th-10th day of pregnancy. In fact, if the conventional value 1 is given to the luteolytic activity of PGF2α, the value of 100 at least is to be given to the luteolytic activity of 13,14-dehydro-17-phenyl-20,19,18-trinor-PGF2α, and the value of 200 to the luteolytic activity of 13,14-dehydro-16-p-fluorophenoxy-20,19,18,17-tetranor-PGF2α.

[1] = target: T1, 15-hydroxy-prostaglandin-dehydrogenase drawn from human placenta (Homo sapiens, UniProt P15428); assay: inhibition of 15-hydroxy-prostaglandin-dehydrogenase, in vitro; type: biochemical; settings: enzyme from human placenta; inhibition partially competitive with respect to PGF2α
T1 construct: drawn from human placenta; from tissue; host or cells: human placenta
T1 sequence (P15428 1-266): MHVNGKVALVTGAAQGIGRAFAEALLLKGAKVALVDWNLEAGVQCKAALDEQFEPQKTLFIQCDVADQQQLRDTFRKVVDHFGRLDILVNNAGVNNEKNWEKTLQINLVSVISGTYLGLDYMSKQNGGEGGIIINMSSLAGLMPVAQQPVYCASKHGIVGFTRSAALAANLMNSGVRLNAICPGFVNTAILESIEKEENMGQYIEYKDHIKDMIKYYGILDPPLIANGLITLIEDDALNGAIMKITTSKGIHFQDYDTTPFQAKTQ
Excerpt: The compounds of formula (I) furthermore inhibit the use of natural prostaglandins as substrate by the same enzyme.

[2] = test system: mares, cows, heifers and sowes; assay: synchronizing the estrum / haematic progesterone levels in farm animals; type: in vivo; settings: for haematic levels of progesterone: after administration of 0.5-3 ml of the 0.5 mg/ml solution; for ability of synchronizing the estrum: solution in aqueous isotonic buffered (pH 7.5) medium, 0.5 mg/ml, mares, cows, heifers and sowes

Row | pKi [1] | SMILES | Guinea Pig Ileum activity, PGF2α = 1 (guinea pig ileum) | Rat Uterus activity, PGF2α = 1 (oestrogenized rat uteri) | luteolytic activity, PGF2α = 1 (pregnant rat) | haematic levels of progesterone [2] | ability of synchronizing the estrum [2]
1 | – | O=C(O)CCC/C=C\CC1C(O)CC(O)C1C#CC(O)COc1cccc(C(F)(F)F)c1 (stereo not drawn) [5c-9α,11α,15S-trihydroxy-20,19,18,17-tetranor-16-m-trifluoromethylphenoxy-prost-5-en-13-ynoic acid] | 0.50 (0.05-5) | 3.86 (2.96-5.03) | – | – | –
2 | – | O=C(O)CCC/C=C\CC1C(O)CC(O)C1C#CC(O)COc1ccc(F)cc1 (stereo not drawn) [5c-9α,11α,15S-trihydroxy-20,19,18,17-tetranor-16-p-fluorophenoxy-prost-5-en-13-ynoic acid] | 0.50 (0.05-5) | 1.91 (1.34-2.73) | 200 | – | –
3 | 3.89 | O=C(O)CCC/C=C\C[C@@H]1[C@@H](C#C[C@@H](O)CCc2ccccc2)[C@H](O)C[C@@H]1O [5c-9α,11α,15S-trihydroxy-20,19,18-trinor-17-phenyl-prost-5-en-13-ynoic acid] | 0.6 | 22.74 | ≥ 100 | – | –
4 | – | CO[C@H](C#C[C@@H]1[C@@H](C/C=C\CCCC(=O)O)[C@@H](O)C[C@H]1O)CCc1ccccc1 [5c-9α,11α-dihydroxy-15S-methoxy-20,19,18-trinor-17-phenyl-prost-5-en-13-ynoic acid] | 0.05 | 4.4 | – | – | –
5 | – | O=C([O-])CCC/C=C\CC1C(O)CC(O)C1C#CC(O)COc1ccc(F)cc1.[Na+] (stereo not drawn) [13,14-dehydro-16-p-fluorophenoxy-20,19,18,17-tetranor-PGF2α] | – | – | – | pronounced downfall | very good results
6 | – | O=C([O-])CCC/C=C\CC1C(O)CC(O)C1C#CC(O)CCc1ccccc1.[Na+] (stereo not drawn) [13,14-dehydro-17-phenyl-20,19,18-trinor-PGF2α] | – | – | – | pronounced downfall | very good results
7 | – | CCCCC[C@H](O)C#C[C@@H]1[C@@H](C/C=C\CCCC(=O)O)[C@@H](O)C[C@H]1O [13,14-dehydro-PGF2α, reference compound] | 0.6 | 1.09 | – | – | –
8 | – | O=C(O)CCC/C=C\C[C@@H]1[C@@H](/C=C/[C@@H](O)CCc2ccccc2)[C@H](O)C[C@@H]1O [17-phenyl-20,19,18-trinor-PGF2α, 5c,13t-9α,11α,15S-trihydroxy-20,19,18-trinor-17-phenyl-prosta-5,13-dienoic acid, reference compound] | 2.34 | 1.54 | – | – | –
9 | – | CCCCC[C@H](O)/C=C/[C@@H]1[C@@H](C/C=C\CCCC(=O)O)[C@@H](O)C[C@H]1O [PGF2α, reference compound] | 1 | 1 | 1 | – | –
